{"source": "patent US20070265245A1", "about": "“S-Mirtazapine For The Treatment Of Hot Flush” (N.V. Organon, priority 2004, published 2007)", "type_in_all_cases": "in vivo", "key": {"ovariectomized rats [1]": {"system": "ovariectomized rats", "assay": "Tail skin temperature in ovariectomized rats (animal model for hot flushes), telemetry", "conditions": "for restoration of the attenuation of the OVX-induced drop in tail skin temperature: summary; for TST lower than the sham operated group: from day 2 onwards", "experimental": "(§1) The effect of the maleate salt of S-mirtazapine was measured in an animal model for hot flushes. The model is based on the observation that the drop in tail skin temperature at the transition from the rest to the active phase in rats is attenuated after ovariectomy. The locomotor activity of the rats was also measured.\n(§2) Tail skin temperature of the rats was measured by use of the telemetry system from Data Sciences International (DSI), a division of Transoma Medical, Inc., USA. This system comprises implantable wireless transmitters (TA10TA-F40 W/TP), receivers (RPC-1 and RLA1020), a data exchange matrix (DEM), and a data acquisition and analysis system (DQ ART 2.2 silver version).\n(§3) The S-mirtazapine maleate was dissolved in 0.9% saline with 5% mulgofen. Compound and vehicle were administered intraperitoneally. Sham placebo and ovariectomized(OVX)/placebo groups received 2 ml/kg/day saline and compound treated groups received 10, 30 or 100 mg/kg/day in a volume of 2 ml/kg/day. Here, the indicated amounts refer to the weight of the maleate salt of S-mirtazepine.\n(§4) Female rats from the Crl:WU strain, weighing 225-250 g at arrival, were supplied by CPB Harlan, The Netherlands. Rats were housed individually in Macrolon™ cages (38×22×15 cm) with a sawdust bedding and “Enviro Dry™” as cage enrichment. The day after arrival the rats were ovariectomized or sham operated and the transmitter was implanted intraperitoneally under isoflurane aneasthesia. After surgery the rats were placed in a temperature controlled room (21.5±1° C.) with an adapted light/dark cycle (lights off 9:30 h a.m., lights on 7:30 h p.m.). They were allowed to recover from surgery and to adapt to the light/dark cycle for at least 2 weeks. Food and water were given ad libitum.\nThe left and right flank and the rear end of the back above the tail implant of the rat were shaved. The rats were anaesthetized with isoflurane (FORENE®/1-chloro-2,2,2,-trifluorethyl-difluoromethyl-ether, Abbott). The operation area was disinfected with Hibicet® (1.5% m/v chloorhexidinedigluconaat and 1.5% m/v cetrimide). The rats were bilateral ovariectomized (OVX) or sham operated. The incision made in the right flank was also used to implant the transmitter in the peritoneal cavity. When closing the abdomen the transmitter was fixed to the abdominal muscles with stitches.\nOn the back of the rat in height of the hips, a small incision in the skin was made and the thermistor-tipped probe was led to the back of the rat. From here the probe was brought under the skin in the tail to about 2 cm from the base of the tail. The lead was fixed with a stitch at the musculus biceps femoris. To complete the operation the skin was closed with wound clips. Immediately after surgery the rats were treated with the analgesic buprenorphine 50 μg/kg sc (Temgesic®, Schering-Plough).\n(§5) Treatment groups were randomized over the OVX groups. The rats were injected intraperitoneally with vehicle or S-mirtazapine maleate once a day at 11:00 a.m. for a period of 5 days. The tail skin temperature and the locomotor activity of the rats were measured every 5 minutes continuously, but the measurements between 12:00 and 02:00 pm (in which period the maximal effect of S-mirtazapine was observed) were used for calculations of the treatment effects. During this period the rats remained completely undisturbed. Before 9:30 am (the time the light turned off) the rats could be taken care of.\n(§6) Body weights of the rats were determined before and after the treatment period. Data were expressed as mean ±S.E.M. unless otherwise specified. For testing statistical significance the Analysis of Variance (ANOVA) was used. The data were logarithmically transformed to normalize variations. A value of P<0.05 was considered to be significant.\nData were collected for each rat for 7 seconds every 5 minutes during two hours starting one hour after drug administration (11:00 a.m.). The mean tail skin temperature over this 2-h period was calculated for each rat. […]"}, "ovariectomized rats [2]": {"system": "ovariectomized rats", "assay": "Locomotor activity of ovariectomized rats, telemetry", "conditions": "for locomotor activity (decrease to): from the first treatment onwards, vehicle around 1.2 cpm", "experimental": "as §1, §2, §3, §4, §5, §6\nData were collected for each rat for 7 seconds every 5 minutes during two hours starting one hour after drug administration (11:00 a.m.). The mean tail skin temperature over this 2-h period was calculated for each rat. In addition, the group means were calculated together with the standard error of the mean (SEM). The tail skin temperature is expressed in degrees centigrade (°C.) and locomotor activity in counts per minutes (cpm).\nThe number of animals in the different test groups varied between 5-8."}, "[3]": {"assay": "Body weight of treated rats before and after treatment period", "conditions": "experiment 1, 10 mg/kg i.p., 5 days", "experimental": "as §6"}}}
{"smiles": "CN1CCN2c3ncccc3Cc3ccccc3[C@H]2C1.O=C(O)/C=C\\C(=O)O", "note": "[S-mirtazapine maleate]", "values": [{"measurement": "restoration of the attenuation of the OVX-induced drop in tail skin temperature", "setting": "ovariectomized rats [1]; 10 mg/kg i.p., OVX rats", "value": "not"}, {"measurement": "restoration of the attenuation of the OVX-induced drop in tail skin temperature", "setting": "ovariectomized rats [1]; 30 mg/kg i.p., OVX rats", "value": "restored"}, {"measurement": "effect against hot flush (conclusion)", "setting": "ovariectomized rats [1]; 30 mg/kg in rats", "value": "effect against hot flush"}, {"measurement": "effect against hot flush (conclusion)", "setting": "ovariectomized rats [1]; 100 mg/kg in rats", "value": "effect against hot flush"}, {"measurement": "increase in TST after the first treatment day", "setting": "ovariectomized rats [1]; experiment 1, 10 mg/kg/day i.p., OVX rats", "value": "approximately 2 °C"}, {"measurement": "effect on tail skin temperature on day 5", "setting": "ovariectomized rats [1]; experiment 1, 10 mg/kg/day i.p., day 5", "value": "no effect"}, {"measurement": "TST after the end of treatment", "setting": "ovariectomized rats [1]; experiment 1, 10 mg/kg/day i.p., all groups returned to normal values for OVX rats", "value": "about 29 °C"}, {"measurement": "TST during the treatment period", "setting": "ovariectomized rats [1]; experiment 1, 10 mg/kg/day i.p., compared to sham/placebo and compared to OVX/placebo at day 4", "value": "significantly higher level"}, {"measurement": "tail skin temperature compared to the OVX rats after 5 consecutive days", "setting": "ovariectomized rats [1]; experiment 2, 10 mg/kg", "value": "no effect"}, {"measurement": "increase in TST after the first treatment", "setting": "ovariectomized rats [1]; experiment 2, 10 mg/kg/day i.p.", "value": "1-3 °C"}, {"measurement": "TST during the treatment period compared to the OVX rats", "setting": "ovariectomized rats [1]; experiment 2, 10 mg/kg/day i.p., day 2 and 3", "value": "significantly higher level"}, {"measurement": "TST after end of treatment", "setting": "ovariectomized rats [1]; experiment 2, 10 mg/kg/day i.p., returned to normal TST values of OVX rats", "value": "28-29 °C"}, {"measurement": "TST after the end of treatment", "setting": "ovariectomized rats [1]; experiment 2, 30 mg/kg i.p.", "value": "returned to normal values of OVX rats"}, {"measurement": "TST compared to the sham operated group after 5 consecutive days", "setting": "ovariectomized rats [1]; experiment 2, 30 mg/kg i.p.", "value": "statistically significantly below"}, {"measurement": "restoration of the fall in TST", "setting": "ovariectomized rats [1]; experiment 2, 30 mg/kg i.p.", "value": "significantly restored"}, {"measurement": "tail skin temperature compared to the OVX group after 5 consecutive days", "setting": "ovariectomized rats [1]; experiment 2, 30 mg/kg i.p.", "value": "significant decrease"}, {"measurement": "TST versus sham operated placebo group on day 5", "setting": "ovariectomized rats [1]; experiment 2, 30 mg/kg i.p., day 5", "value": "statistically significantly different"}, {"measurement": "TST lower than the sham operated group", "setting": "ovariectomized rats [1]; experiment 2, 30 mg/kg i.p.", "value": "2-4 °C"}, {"measurement": "TST after the end of treatment", "setting": "ovariectomized rats [1]; experiment 2, 100 mg/kg i.p.", "value": "stayed up to 2 days after the end of treatment at a lower level"}, {"measurement": "restoration of the fall in TST", "setting": "ovariectomized rats [1]; experiment 2, 100 mg/kg i.p.", "value": "significantly restored"}, {"measurement": "tail skin temperature compared to the OVX group after 5 consecutive days", "setting": "ovariectomized rats [1]; experiment 2, 100 mg/kg i.p.", "value": "significant decrease"}, {"measurement": "TST lower than the sham operated group", "setting": "ovariectomized rats [1]; experiment 2, 100 mg/kg i.p.", "value": "2-4 °C"}, {"measurement": "locomotor activity", "setting": "ovariectomized rats [2]; 30 mg/kg, summary, effect not statistically significant", "value": "reduced"}, {"measurement": "locomotor activity compared to OVX placebo group", "setting": "ovariectomized rats [2]; experiment 1, 10 mg/kg i.p.", "value": "no significant effect"}, {"measurement": "locomotor activity compared to sham operated placebo group", "setting": "ovariectomized rats [2]; experiment 1, 10 mg/kg/day i.p., day 3", "value": "significant reduction"}, {"measurement": "effect on locomotor activity", "setting": "ovariectomized rats [2]; experiment 2, 10 mg/kg/day, rest of experiment at level of placebo treated OVX rats", "value": "only an effect on locomotor activity after the first treatment"}, {"measurement": "locomotor activity at the end of the treatment period", "setting": "ovariectomized rats [2]; experiment 2, 30 mg/kg i.p.", "value": "about 0.5 cpm"}, {"measurement": "drop in locomotor activity", "setting": "ovariectomized rats [2]; experiment 2, 30 mg/kg i.p., after 5 days treatment", "value": 50, "unit": "%"}, {"measurement": "locomotor activity (decrease to)", "setting": "ovariectomized rats [2]; experiment 2, 30 mg/kg i.p.", "value": "about 0.5 cpm"}, {"measurement": "locomotor activity at the end of the treatment period", "setting": "ovariectomized rats [2]; experiment 2, 100 mg/kg i.p.", "value": "increased to the level of the vehicle treated rats"}, {"measurement": "locomotor activity (decrease to)", "setting": "ovariectomized rats [2]; experiment 2, 100 mg/kg i.p.", "value": "about 0.5 cpm"}, {"measurement": "locomotor activity after 5 days treatment compared to the OVX placebo group", "setting": "ovariectomized rats [2]; experiment 2, any dose group (10, 30, 100 mg/kg)", "value": "No statistically significant effect"}, {"measurement": "effect on body weight (BW)", "setting": "[3]", "value": "no significant effect"}]}
